Assay results from ChEMBL document CHEMBL5360572, “Advances of bioorthogonal coupling reactions in drug development” (Eur J Med Chem, 2023).

Columns and labels:
[1] = target: T1, M-phase inducer phosphatase 2 (Homo sapiens, UniProt P30305); test: Inhibition of full-length recombinant human CDC25B using OMFP as substrate incubated for 5 to 8 mins by fluorescence based assay
T1 sequence (P30305 whole entry): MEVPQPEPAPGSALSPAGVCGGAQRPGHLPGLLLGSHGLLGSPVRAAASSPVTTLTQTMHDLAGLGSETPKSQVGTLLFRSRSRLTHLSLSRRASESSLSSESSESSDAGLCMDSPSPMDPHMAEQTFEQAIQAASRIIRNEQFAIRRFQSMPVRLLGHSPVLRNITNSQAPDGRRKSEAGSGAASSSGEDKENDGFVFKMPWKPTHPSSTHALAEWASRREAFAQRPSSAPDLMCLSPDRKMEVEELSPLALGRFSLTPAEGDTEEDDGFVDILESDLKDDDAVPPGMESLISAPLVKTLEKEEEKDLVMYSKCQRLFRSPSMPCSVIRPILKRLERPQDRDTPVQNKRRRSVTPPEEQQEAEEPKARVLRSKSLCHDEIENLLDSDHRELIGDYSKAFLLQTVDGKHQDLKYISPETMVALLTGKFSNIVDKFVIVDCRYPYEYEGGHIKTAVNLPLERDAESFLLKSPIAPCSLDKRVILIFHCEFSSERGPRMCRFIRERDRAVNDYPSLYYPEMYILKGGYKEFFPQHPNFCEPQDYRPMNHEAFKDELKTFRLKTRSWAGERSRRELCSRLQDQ

[2] = target: T2, M-phase inducer phosphatase 1 (Homo sapiens, UniProt P30304); test: Inhibition of full-length recombinant human CDC25A using OMFP as substrate incubated for 5 to 8 mins by fluorescence based assay
T2 sequence (P30304 whole entry): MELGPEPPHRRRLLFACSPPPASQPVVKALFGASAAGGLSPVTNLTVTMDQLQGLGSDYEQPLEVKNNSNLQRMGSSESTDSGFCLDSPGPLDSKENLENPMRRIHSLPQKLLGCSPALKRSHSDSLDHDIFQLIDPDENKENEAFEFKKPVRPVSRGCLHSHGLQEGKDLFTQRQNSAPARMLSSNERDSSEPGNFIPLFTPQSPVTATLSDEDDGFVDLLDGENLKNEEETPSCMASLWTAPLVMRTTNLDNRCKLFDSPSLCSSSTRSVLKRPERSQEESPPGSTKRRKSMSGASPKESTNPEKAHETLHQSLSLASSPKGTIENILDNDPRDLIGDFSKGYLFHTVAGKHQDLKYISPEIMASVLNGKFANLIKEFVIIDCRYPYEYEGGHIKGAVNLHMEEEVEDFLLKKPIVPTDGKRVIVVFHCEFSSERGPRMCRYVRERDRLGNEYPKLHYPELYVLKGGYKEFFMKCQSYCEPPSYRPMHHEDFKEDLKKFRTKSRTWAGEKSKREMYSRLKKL

[3] = target: T3, M-phase inducer phosphatase 3 (Homo sapiens, UniProt P30307); test: Inhibition of full-length recombinant human CDC25C using OMFP as substrate incubated for 5 to 8 mins by fluorescence based assay
T3 sequence (P30307 whole entry): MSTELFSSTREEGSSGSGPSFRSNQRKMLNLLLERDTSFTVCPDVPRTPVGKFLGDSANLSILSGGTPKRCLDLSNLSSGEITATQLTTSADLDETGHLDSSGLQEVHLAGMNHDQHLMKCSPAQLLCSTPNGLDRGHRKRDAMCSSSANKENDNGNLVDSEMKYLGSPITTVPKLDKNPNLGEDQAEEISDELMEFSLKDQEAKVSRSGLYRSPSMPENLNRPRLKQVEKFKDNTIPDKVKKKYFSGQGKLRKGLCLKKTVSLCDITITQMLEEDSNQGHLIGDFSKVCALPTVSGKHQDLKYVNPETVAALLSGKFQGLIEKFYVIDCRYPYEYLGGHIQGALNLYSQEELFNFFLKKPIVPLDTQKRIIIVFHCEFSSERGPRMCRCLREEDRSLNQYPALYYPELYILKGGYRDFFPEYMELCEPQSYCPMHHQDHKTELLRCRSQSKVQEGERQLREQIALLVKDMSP

## CC(NC1=C(Cl)C(=O)c2cccnc2C1=O)c1cn(-c2ccc(CO)cc2)nn1 (stereo not drawn)
[1]
  IC50: 190 nM
[2]
  IC50: 150 nM
[3]
  IC50: 60 nM
